Assay results as given in PMC6222425, “Novel 5′-Norcarbocyclic Derivatives of Bicyclic Pyrrolo- and Furano[2,3-d]Pyrimidine Nucleosides” (Molecules : A Journal of Synthetic Chemistry and Natural …, 2018).
Like-named read-outs stand apart in the source and are kept apart here.

How the values were obtained:
Assay type in all cases: cell-based
[1] = tested on: HeLa (human cervical epithelioid carcinoma) cells; experiment: Cell viability analysis by MTT assay, HeLa; conditions: for IC50: Homo sapiens, HeLa, MTT, 48 h incubation, read-out: Antiproliferative activity, IC50, HeLa; for Selectivity index, HeLa: ratio of IC50 on normal hFF3 cells to IC50 of HeLa
Description: (§1) The target compounds were tested on different lines of tumor cells, HuTu-80 (human duodenal cancer), B16 (mouse melanoma), A549 (human lung adenocarcinoma), KB-3-1 (human squamous cell carcinoma), HeLa (human squamous cell carcinoma of the cervix), as well as on human noncancer cells hFF3.
(§2) Human KB-3-1 epidermoid carcinoma cell line, human HeLa cervical epithelioid carcinoma cell line, human HuTu-80 duodenal cancer cells, human A549 lung carcinoma epithelial cells, mouse B16 melanoma cell line and human hFF3 fibroblast cells were obtained from the Russian Cell Culture Collection (St. Petersburg, Russia) and were cultured in DMEM (hFF3 cells in IMDM) supplemented with 10% (v/v) heat-inactivated fetal bovine serum, penicillin (100 U mL^−1), streptomycin (100 µg mL^−1) and amphotericin ([…]). Cells were maintained in a humidified atmosphere of 5% CO2 at 37 °C.
(§3) All compounds were dissolved in dimethylsulfoxide (DMSO) and stock solutions (10 mmol L^−1) were stored at −20 °C.
(§4) Cells growing in the logarithmic phase were seeded in triplicate in 96-well plates at a density of 5 × 10^3 cells per well for HeLa and HuTu-80 cells, 7 × 10^3 cells per well for KB-3-1 and hFF3, 10 × 10^3 for A549 and 20 × 10^3 for B16. The plates were incubated at 37 °C in a humidified 5% CO2 atmosphere. Cells were allowed to adhere to the surface for 24 h and then tested compounds were added at different concentrations and incubation was continued for 48 h. Then [3-(4,5-dimethylthiazol-2-yl)-2,5-diphenyltetrazolium bromide] (MTT) solution (10 µL, 5 mg mL^−1) was added to each well and the incubation was continued for an additional 3 h. The dark blue formazan crystals formed within the healthy cells were solubilized with DMSO and the absorbance was measured using a Multiscan RC plate reader at 570 nm. The IC50 was determined as the compound concentration required to decrease the A570 to 50% compared to the control (no tested compounds, DMSO) and was determined by interpolation from dose-response curves.

[2] = tested on: human noncancer cells hFF3 (fibroblasts); experiment: Cell viability analysis by MTT assay, normal hFF3 cells; conditions: for IC50: normal cells, MTT, 48 h incubation, read-out: Antiproliferative activity, IC50, hHFF3; for Toxic effect on normal hFF3 cells: concentrations up to 100 μM
Description: as §1, §2, §3, §4

[3] = tested on: KB-3-1 (human epidermoid carcinoma) cells; experiment: Cell viability analysis by MTT assay, KB-3-1; conditions: for IC50: Homo sapiens, KB 3-1, 48 h, MTT, 48 h incubation, read-out: Antiproliferative activity, IC50, KB-3-1; for Selectivity index, KB-3-1: ratio of IC50 on normal hFF3 cells to IC50 of KB-3-1
Description: as §1, §2, §3, §4

[4] = tested on: A549 (human lung adenocarcinoma) cells; experiment: Cell viability analysis by MTT assay, A549; conditions: for IC50: Homo sapiens, A549, MTT, 48 h incubation, read-out: Antiproliferative activity, IC50, A549; for Selectivity index, A549: ratio of IC50 on normal hFF3 cells to IC50 of A549
Description: as §1, §2, §3, §4

[5] = tested on: HuTu-80 (human duodenal cancer) cells; experiment: Cell viability analysis by MTT assay, HuTu-80; conditions: for IC50: Homo sapiens, HuTu80, MTT, 48 h incubation, read-out: Antiproliferative activity, IC50, HuTu80; for Selectivity index, HuTu80: ratio of IC50 on normal hFF3 cells to IC50 of HuTu80
Description: as §1, §2, §3, §4

[6] = tested on: B16 (mouse melanoma) cells; experiment: Cell viability analysis by MTT assay, B16; conditions: for IC50: MTT, 48 h incubation, read-out: Antiproliferative activity, IC50, B16; for Selectivity index, B16: ratio of IC50 on normal hFF3 cells to IC50 of B16
Description: as §1, §2, §3, §4

SMILES	IC50 [1]	IC50 [3]	IC50 [4]	IC50 [5]	IC50 ([6]; Mus musculus, 48 h)	IC50 [6]	Selectivity index, HeLa [1]	IC50 ([2]; Homo sapiens, HFF-3, 48 h)	Toxic effect on normal hFF3 cells [2]	Selectivity index, KB-3-1 [3]	Selectivity index, A549 [4]	Selectivity index, HuTu80 [5]	Selectivity index, B16 [6]	IC50 [2]
CCCc1cc2cn(C3C=CC(O)C3)c(=O)nc2o1 (stereo not shown) [Compound 3a, 1-(4′-Hydroxy-2′-cyclopenten-1′-yl)-6-propyl-3H-furano[2,3-d]-pyrimidine-2-one]	63.4 ± 6.8 µM	40.1 ± 5.2 µM	> 100 µM	> 100 µM	> 100 µM		>1.6	> 100 µM	not toxic	>2.5				
CCCCCCc1cc2cn(C3C=CC(O)C3)c(=O)nc2o1 (stereo not shown) [Compound 3c, 1-(4′-Hydroxy-2′-cyclopenten-1′-yl)-6-hexyl-3H-furano[2,3-d]-pyrimidine-2-one]	> 100 µM	45.3 ± 5.1 µM	50.3 ± 6.1 µM	100 µM	> 100 µM			> 100 µM	not toxic	>2.2	>1.9			
CCCCCCCCc1cc2cn(C3C=CC(O)C3)c(=O)nc2o1 (stereo not shown) [Compound 3d, 1-(4′-hydroxy-2′-cyclopenten-1′-yl)-6-octyl-3Hfurano[2,3-d]-pyrimidine-2-one]	40.6 ± 3.9 µM	47.3 ± 4.2 µM	54.1 ± 6.1 µM	46.3 ± 5.7 µM	46.2 ± 3.4 µM		1.2	48.2 ± 5.1 µM		1	0.9	1	1	
CCCCCCCCCCc1cc2cn(C3C=CC(O)C3)c(=O)nc2o1 (stereo not shown) [Compound 3e, 1-(4′-hydroxy-2′-cyclopenten-1′-yl)-6-decyl-3Hfurano[2,3-d]-pyrimidine-2-one]	4.5 ± 0.9 µM	11.2 ± 5.3 µM	36.2 ± 11.3 µM	7.3 ± 2.4 µM	21.3 ± 3.1 µM		2.6	11.6 ± 2.1 µM		1	0.3	1.6	0.5	
CCCCCCCCCCCCc1cc2cn(C3C=CC(O)C3)c(=O)nc2o1 (stereo not shown) [Compound 3f, 1-(4′-hydroxy-2′-cyclopenten-1′-yl)-6-dodecyl-3Hfurano[2,3-d]-pyrimidine-2-one]	2.5 ± 0.3 µM	10.2 ± 4.1 µM	10.5 ± 1.9 µM	7.1 ± 0.8 µM	4.5 ± 0.3 µM		4.1	10.2 ± 1.8 µM		1	1	1.4	2.3	
O=c1nc2oc(-c3ccccc3)cc2cn1C1C=CC(O)C1 (stereo not shown) [Compound 3g, 1-(4′-Hydroxy-2′-cyclopenten-1′-yl)-6-phenyl-3H-furano[2,3-d]-pyrimidine-2-one]	45.3 ± 5.1 µM	30.1 ± 4.1 µM	> 100 µM	> 100 µM	> 100 µM		>2.2	> 100 µM	not toxic	>3.3				
CC(C)(C)c1ccc(-c2cc3cn(C4C=CC(O)C4)c(=O)nc3o2)cc1 (stereo not shown) [Compound 3h, 1-(4′-Hydroxy-2′-cyclopenten-1′-yl)-6-tertbutylphenyl-3H-furano[2,3-d]-pyrimidine-2-one]	2.3 ± 0.3 µM	1.7 ± 0.2 µM	7.2 ± 0.8 µM	9.9 ± 1.7 µM	10.1 ± 2.3 µM		2.2	5.1 ± 0.7 µM		3	0.7	0.5	0.5	

Now from value to molecule, other results behind:

IC50 [1]	IC50 [3]	IC50 [4]	IC50 [5]	IC50 ([6]; Mus musculus, 48 h)	IC50 [6]	SMILES	Selectivity index, HeLa [1]	IC50 ([2]; Homo sapiens, HFF-3, 48 h)	Toxic effect on normal hFF3 cells [2]	Selectivity index, KB-3-1 [3]	Selectivity index, A549 [4]	Selectivity index, HuTu80 [5]	Selectivity index, B16 [6]	IC50 [2]
50.1 ± 4.7 µM	25.2 ± 3.4 µM	45.3 ± 3.9 µM	80.4 ± 0.9 µM	> 100 µM		CCCCCc1cc2cn(C3C=CC(O)C3)c(=O)nc2[nH]1 (stereo not shown) [Compound 4b, 1-(4′-Hydroxy-2′-cyclopenten-1′-yl)-6-pentyl-3H-pyrrolo[2,3-d]-pyrimidine-2-one]	>1.9	> 100 µM		>3.9	>2.2	>1.2		
50.7 ± 6.2 µM	25.6 ± 2.9 µM	35.2 ± 4.1 µM	20.4 ± 3.9 µM	> 100 µM		CCCCCCc1cc2cn(C3C=CC(O)C3)c(=O)nc2[nH]1 (stereo not shown) [Compound 4c, 1-(4′-Hydroxy-2′-cyclopenten-1′-yl)-6-hexyl-3H-pyrrolo[2,3-d]-pyrimidine-2-one]	>1.9	> 100 µM		>3.9	>2.8	>4.9		
20.1 ± 1.9 µM	25.4 ± 3.1 µM	100 µM	30.2 ± 2.9 µM	> 100 µM		CCCCCCCCc1cc2cn(C3C=CC(O)C3)c(=O)nc2[nH]1 (stereo not shown) [Compound 4d, 1-(4′-Hydroxy-2′-cyclopenten-1′-yl)-6-octyl-3H-pyrrolo[2,3-d]-pyrimidine-2-one]	>4.9	> 100 µM		>3.9		>3.3		
11 ± 2.1 µM	18.4 ± 7.1 µM	36.2 ± 6.2 µM	23.4 ± 7.8 µM	25 µM	25.1 ± 2.4 µM	CCCCCCCCCCc1cc2cn(C3C=CC(O)C3)c(=O)nc2[nH]1 (stereo not shown) [Compound 4e, 1-(4′-Hydroxy-2′-cyclopenten-1′-yl)-6-decyl-3H-pyrrolo[2,3-d]-pyrimidine-2-one]	5.7	63 µM		3.4	1.7	2.6	2.5	62.5 ± 8.3 µM
3.2 ± 0.4 µM	4.5 ± 0.9 µM	4.5 ± 0.2 µM	3.1 ± 0.4 µM	3.1 ± 0.3 µM		CCCCCCCCCCCCc1cc2cn(C3C=CC(O)C3)c(=O)nc2[nH]1 (stereo not shown) [Compound 4f, 1-(4′-Hydroxy-2′-cyclopenten-1′-yl)-6-dodecyl-3H-pyrrolo[2,3-d]-pyrimidine-2-one]	1	3.4 ± 0.7 µM		0.8	0.8	1.1	1.1	
